Data on 52 molecules can be found in PubChem BioAssay AID743440 (Broad Institute, 2014).

Structures are written as SMILES. Active and inactive are the calls of the source.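 Rule for the calls: active = AC50 for cell killing below 10 µM, with the signal falling as expected; inactive = the rest, including compounds acting in the opposite direction.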 Bounds are passed on as bounds.

The test system of one assay is HepG2 viability, ATP luminescence (CellTiter-Glo), 72 h. Briefly: HepG2 cell cytotoxicity, dose response, cytotoxicity control, plate reader, dry powder, set 11 (AID 743440).
Conditions: not given
For `O=C(CSc1c2c(nc3ccc(Cl)cc13)CCCC2)NCc1ccc2c(c1)OCO2`, the AC50 (as a rule, the concentration giving half of the maximal activity seen) was > 52 µM (inactive).

Take `CCCNC(=O)CSc1c2c(nc3ccc(Cl)cc13)CCCC2`: the AC50 was > 52 µM (inactive).

Turning to `Cc1ccc(CNC(=O)CSc2c3c(nc4ccc(Cl)cc24)CCCC3)cc1`, the AC50 is > 52 µM (inactive).

As to `O=C(CSc1c2c(nc3ccc(Cl)cc13)CCCC2)Nc1ccc(Cl)cc1`, the AC50 was > 52 µM (inactive).

Regarding `CN(CCNC(=O)CSc1c2c(nc3ccc(Cl)cc13)CCCC2)Cc1ccccc1`, the AC50 is > 52 µM (inactive).

As to `COc1cc(CNCCCN2CCOCC2)ccc1OCC(=O)Nc1cccc(C(F)(F)F)c1`, the AC50 was > 24 µM (inactive).

For the molecule `O=C(CSc1c2c(nc3ccc(Cl)cc13)CCCC2)NC1CCN(Cc2ccccc2)CC1`, the AC50 is 26.3 µM.

For `CCN(CC)CCCNC(=O)c1ccc(OCC(=O)Nc2ccccc2C(F)(F)F)c(OC)c1`, the AC50 was > 52 µM (inactive).

Turning to `COc1ccc(CNC(=O)CSc2c3c(nc4ccc(Cl)cc24)CCCC3)cc1`, the AC50 is > 52 µM (inactive).

On to `O=C(CSc1c2c(nc3cc(Cl)ccc13)CCCC2)N(Cc1ccco1)C1CCCC1`, for which the AC50 was > 52 µM (inactive).

In the case of `O=C(CSc1c2c(nc3ccccc13)CCCC2)NCc1ccco1`, the AC50 is > 52 µM (inactive).

With `CN(C(=O)COc1ccccc1C(=O)NCCc1ccccc1)c1ccccc1`, the AC50 was > 52 µM (inactive).

As for `COc1cc(C(=O)NCCCN(C)C)ccc1OCC(=O)Nc1cccc(C(F)(F)F)c1`, the AC50 was > 52 µM (inactive).

Consider `O=C(CSc1c2c(nc3ccc(Cl)cc13)CCCC2)NC1CC1`, for which the AC50 was > 52 µM (inactive).

For `Cc1ccc(CNC(=O)CSc2c3c(nc4ccc(Cl)cc24)CCCC3)o1`, the AC50 is > 52 µM (inactive).

Turning to `CCCCOc1ccc(NC(=O)COc2ccccc2C(=O)NCCOc2ccccc2)cc1`, the AC50 is > 52 µM (inactive).

Take `O=C(CSc1c2c(nc3ccc(Cl)cc13)CCCC2)N1CCOCC1`: the AC50 is > 52 µM (inactive).

For the molecule `O=C(COc1ccc(C(=O)NC2CCCCC2)cc1)Nc1cccc(C(F)(F)F)c1`, the AC50 is > 52 µM (inactive).

Take `CC1(C)CC(NC(=O)c2ccc(OCC(=O)Nc3cccc(C(F)(F)F)c3)cc2)CC(C)(C)N1`: the AC50 was > 52 µM (inactive).

Take `Cc1cccc(NC(=O)CSc2c3c(nc4ccc(Cl)cc24)CCCC3)n1`: the AC50 is 26.2 µM.

With `O=C(COc1ccccc1C(=O)NCCOc1ccc(Cl)cc1)Nc1cccc(Cl)c1`, the AC50 is > 52 µM (inactive).

Regarding `CCN1CCCC1CNC(=O)CSc1c2c(nc3ccc(Cl)cc13)CCCC2` (configuration not stated), the AC50 is 16.1 µM.

Turning to `COCCNC(=O)CSc1c2c(nc3ccc(Cl)cc13)CCCC2`, the AC50 is > 52 µM (inactive).

Turning to `CC(Sc1c2c(nc3ccc(Cl)cc13)CCCC2)C(=O)NCc1ccco1` (configuration not stated), the AC50 is > 52 µM (inactive).

Turning to `O=C(CSc1c2c(nc3ccc(Cl)cc13)CCCC2)N1CCN(Cc2ccccc2)CC1`, the AC50 is > 52 µM (inactive).

Test system in another assay: not listed separately
The assay is described as above. As to conditions: HepG2 viability, ATP luminescence (CellTiter-Glo), 72 h; at 12 µM (top of the series). On the technique in general: In ATP-based viability assays light output follows the ATP content of the culture.
With `O=C(CSc1c2c(nc3ccc(Cl)cc13)CCCC2)NCc1cccs1`, the activity change, negative = cytotoxicity was -11.9% (inactive).

The same assay, now with this note: HepG2 viability, ATP luminescence (CellTiter-Glo), 72 h; at 26 µM (top of the series).
Consider `O=C(COc1ccc(C(=O)N2CCN(C(=O)C3CC3)CC2)cc1)Nc1cccc(C(F)(F)F)c1`, for which the activity change, negative = cytotoxicity was -22.9% (inactive).

Consider `COc1ccc(OCCNC(=O)c2ccccc2OCC(=O)Nc2ccc(NC(C)=O)cc2)cc1`, for which the activity change, negative = cytotoxicity was -7.48% (inactive).

`CN(C)c1ccc(NC(=O)COc2ccccc2C(=O)N2CCOCC2)cc1`: the activity change, negative = cytotoxicity was 8.33% (inactive).

On to `CN(C(=O)COc1ccccc1C(N)=O)c1ccccc1`, for which the activity change, negative = cytotoxicity is 2.01% (inactive).

Regarding `Cn1cc(SCC(=O)NCc2ccco2)c2ccccc21`, the activity change, negative = cytotoxicity is -5.75% (inactive).

`O=C(COc1ccc(C(=O)NCC2CCCO2)cc1)Nc1cccc(C(F)(F)F)c1` (configuration not stated): the activity change, negative = cytotoxicity was -9.73% (inactive).

Regarding `O=C(CSc1cccc2cccnc12)NCc1ccco1`, the activity change, negative = cytotoxicity was 9.13% (inactive).

As for `COC(=O)CCCN(C)C(=O)c1ccc(OCC(=O)Nc2cccc(OC)c2)cc1`, the activity change, negative = cytotoxicity is -8.54% (inactive).

With `O=C(CSc1ccc2ccccc2n1)NCc1ccco1`, the activity change, negative = cytotoxicity was -2.89% (inactive).

`CCOC(=O)C1CCN(C(=O)c2ccc(OCC(=O)N3CCOCC3)c(OC)c2)CC1`: the activity change, negative = cytotoxicity is -12.3% (inactive).

As for `O=C(COc1ccccc1C(=O)NCc1ccccc1)Nc1ccccc1`, the activity change, negative = cytotoxicity was -9.2% (inactive).

For the molecule `Cn1c(=O)cc(SCC(=O)NCc2ccco2)c2ccccc21`, the activity change, negative = cytotoxicity was 2.16% (inactive).

Take `CCOC(=O)C1CCN(C(=O)c2ccc(OCC(=O)Nc3ccc(OCC)cc3)c(OC)c2)CC1`: the activity change, negative = cytotoxicity was -2.93% (inactive).

Turning to `CN(C(=O)COc1ccccc1C(=O)Nc1ccccc1)c1ccccc1`, the activity change, negative = cytotoxicity is -11.2% (inactive).

Turning to `Cc1ccc2nc(Cl)cc(SCC(=O)NCc3ccco3)c2c1`, the activity change, negative = cytotoxicity was -16.7% (inactive).

With `Cc1ccc(NC(=O)COc2ccccc2C(=O)NCCN(C)C)cc1`, the activity change, negative = cytotoxicity is -14.7% (inactive).

For `NC(=O)C1CCN(C(=O)c2ccc(OCC(=O)Nc3cccc(C(F)(F)F)c3)cc2)CC1`, the activity change, negative = cytotoxicity was -3.5% (inactive).

As to `O=C(CSc1c2c(nc3ccc(Cl)cc13)CCCC2)N1CCCCC1`, the activity change, negative = cytotoxicity was -19.8% (inactive).

As to `COc1ccc(N(Cc2cccs2)C(=O)COc2ccccc2C(=O)Nc2ccccc2)cc1`, the activity change, negative = cytotoxicity was -1.88% (inactive).

For the molecule `O=C(O)CSc1c2c(nc3cc(C(=O)NCc4cccs4)ccc13)CCCC2`, the activity change, negative = cytotoxicity is -3.5% (inactive).

Regarding `CN(C(=O)COc1ccc(Cl)cc1C(N)=O)c1ccccc1`, the activity change, negative = cytotoxicity is 6.24% (inactive).

As for `O=C(COc1ccc(C(=O)N2CCC2)cc1)Nc1cccc(C(F)(F)F)c1`, the activity change, negative = cytotoxicity is -3.29% (inactive).

For `CCN(CC)C(=O)CSc1c2c(nc3ccc(Cl)cc13)CCCC2`, the activity change, negative = cytotoxicity was -8.05% (inactive).

In the case of `CN(CCOc1ccccc1)C(=O)c1ccc(OCC(=O)Nc2cccc(C(F)(F)F)c2)cc1`, the activity change, negative = cytotoxicity is -1.92% (inactive).

Consider `O=C(CSc1c2c(nc3ccc(Cl)cc13)CCCC2)N1CCNC1=O`, for which the activity change, negative = cytotoxicity was -15.2% (inactive).

For the molecule `CCOc1ccc(NC(=O)COc2ccc(C(=O)N3CCC(C(N)=O)CC3)cc2OC)cc1`, the activity change, negative = cytotoxicity is -12.6% (inactive).
